Data reported in patent US20240409902A1, “SYSTEMS AND METHODS FOR CULTURING PODOCYTES AND USES THEREOF” (Washington University, priority 2021, published 2024).
“Also recorded” adds a separate entry of the source.

Tests used:
[1] = tested on: primary podocytes; assay: Myosin II inhibition with blebbistatin: sarcomere-like structures (SLSs) in primary podocytes, immunostained for synaptopodin and myosin IIA; type: cell-based, mouse
Method: After spreading, cultured podocytes on the hydrogels or glass were fixed in 4% paraformaldehyde (Electron Microscopy Sciences, 15712) for 10 min at room temperature followed by washing with 1×PBS, three times for 6 min each, and then permeabilized using 0.05% Triton X-100 for 10 min at room temperature. Next, samples were blocked using 2% bovine serum albumin (Sigma-Aldrich, A7906) for 30 min at room temperature before applying the primary antibodies overnight at 4° C. Next, samples were washed with 1×PBS, three times for 6 min each before incubating them with the secondary antibodies in PBS for 1 hour at room temperature. Last, the samples were washed in 1×PBS, three times for 6 min, and prepared for mounting using Invitrogen Slow Fade mounting medium (Invitrogen, S36917). The cover glass holding the sample (hydrogel and cells) was bonded to a second cover glass using nail polish. The primary antibodies used were myosin IIA (BioLegend, 909801, rabbit anti-mouse), myosin IIA (Abnova, clone 3C7, mouse anti-human, NH2-terminus), synaptopodin (Synaptic Systems, 163004, guinea pig anti-mouse), laminin α5 [clone 4C7, mouse anti-human], fibronectin (Sigma-Aldrich, F3648, rabbit anti-human), collagen IV (SouthernBiotech, 1340-01, goat anti-human), nephrin (R&D Systems, AF3159, goat anti-mouse), and α-SMA (Invitrogen, 14-9760-82). Alexa Fluor 555 phalloidin (Thermo Fisher Scientific, A34055) was used for actin staining. For mouse myosin antibodies (clone 3C7), samples were antigen retrieved in TE (Tris-EDTA) buffer (pH 9.0) at 65° C. for 4 hours before the permeabilization step.
Blebbistatin (EMD Millipore, 203389-5) was used to inhibit the function of myosin II in the podocytes. […] After 2 hours of treatment, the samples were washed with PBS and immediately fixed and stained as mentioned above.
Sarcomeric structures were measured using ImageJ (v1.53e with Bio-Formats plugin). Briefly, fluorescence intensity maps were acquired by plotting the intensity along a line drawn perpendicular to the sarcomere structure. For the histogram, the spacing of each sarcomere is calculated by recording the peak location in the intensity map, and n for each group represents the total sarcomere number calculated in that group. For averaged sarcomeric spacing, the mean values were calculated for each intensity map (i.e., each stress fiber that is no less than 6 μm long), while n for each group represents the number of stress fibers analyzed in that group.
(§1) For counting and scoring cell phenotypes, imaged podocytes were divided into several categories, including (i) cells with SLSs centrally and in the periphery, (ii) cells with SLSs only in the periphery, (iii) cells with loose striated patterns of synaptopodin and myosin IIA instead of a mat of SLSs (i.e., widely spaced SLSs), and, lastly, (iv) cells without SLSs. For measuring cell length, the longest axis of the cell was determined (mostly along the micropattern direction), and the length was determined through ImageJ (v1.53e with Bio-Formats plugin).

[2] = tested on: primary mouse podocytes; assay: Cell relaxation and strain mapping with microbead-embedded hydrogels after CytoD; type: cell-based
Method: Fluorescent microbeads with a diameter of 0.2 μm (Invitrogen, F8801) were added to the hydrogel's pre-cross-linking solution with a 1:60 dilution ratio before the cross-linking step. After solidification, hydrogels were used for the strain mapping as reported earlier. Briefly, primary mouse podocytes were isolated as described above, seeded on the hydrogels, and allowed to spread for 24 hours. Next, the cells were transferred to a live-imaging chamber before adding CytoD to the culture medium (CytoD, Sigma-Aldrich, 22144-77-0; final concentration, 20 μM). In the final step, the culture medium was changed to 10% SDS to remove the attached cells completely. Cell relaxation and microbead movements were recorded immediately after adding CytoD or 10% SDS, and the strain field was calculated using a strain mapping algorithm that was developed in our previous study.
as §1

[3] = tested on: podocytes from isolated mouse glomeruli; assay: Glomerular culture and podocyte spreading on ECM-micropatterned hydrogels; type: cell-based; settings: glomeruli cultured 2 days on micropatterned PAAm hydrogels
Excerpt: To test which micropatterned ECM proteins best support podocytes, mouse glomeruli were isolated and cultured on hydrogels coated with Lam-521, collagen IV, or fibronectin. […] Furthermore, the PAAm hydrogel was coated with Lam-521 and micropatterned protein-free patches onto the substrate using a PDMS stamp that removed Lam-521, leaving an inverse of the previous Lam-521 micropatterns interdigitated with microscale patches of exposed PAAm.
Next, the PDMS stamp was cleaned by sonication (Branson) for 20 min and washed in 50% ethanol solution before drying under nitrogen flow followed by plasma cleaning for 2 min (Harrick Plasma). Last, the PDMS stamp micropattern areas were soaked in different ECM solutions [laminin 521 (50 μg/ml; Biolamina, LN521-05), fibronectin (Corning, 356008), or collagen IV (Corning, 354233) in phosphate-buffered saline (PBS)] and left to set for 1 hour at room temperature.
After air-drying the ECM proteins atop the PDMS stamp, the excess solution was removed, and the stamp was dried further using nitrogen flow. The freshly prepared hydroxyl-PAAm hydrogel was also dried out by treatment with nitrogen flow. […]

**Q.** For `Cc1ccc2c(c1)C(=O)C1(O)CCN(c3ccccc3)C1=N2` (centres unmarked) [blebbistatin, Blebbistatin], which SLS formation ([1]; 10 nM blebbistatin, 0.2- or 0.9-kPa hydrogels (FIG. 4F)) is on record?
**A.** The SLS formation was “SLSs failed to form; also recorded: caused the loss of SLSs with a lower concentration of blebbistatin”.

**Q.** And the “SLS formation and sarcomeric spacing” value ([1]; 10 nM blebbistatin, 6.0-kPa hydrogels or glass substrates (FIGS. 4F and G), listed as Blebb)?
**A.** The value was “myosin inhibition led to wider sarcomeric spacing”.

**Q.** And the “effect on SLSs” value ([1]; 2 μM blebbistatin (milder myosin inhibition))?
**A.** Its value is “insufficient to disrupt the SLSs at the cell periphery but sufficient to disrupt those in the centers of the cells”.

**Q.** And the “effect on SLSs” value ([1]; 10 μM blebbistatin, 2 hours, 6.0-kPa PAAm hydrogels and cover glass with Lam-521)?
**A.** Its value is “caused aggregation of synaptopodin in the center of the cells and increased sarcomeric spacing in SLSs that persisted at the cell periphery”.

**Q.** What about the “effect on SLSs” value ([1]; 100 μM blebbistatin, 2 hours, 6.0-kPa PAAm hydrogels and cover glass with Lam-521) of the same compound?
**A.** The value was “nearly eliminated SLSs”.

**Q.** And the “disruption or loss of SLSs, concentration not given” value ([1]; podocytes on glass or patterned hydrogels (FIGS. 4D and E))?
**A.** The value was “disrupted the sarcomeric structures of SLSs in a way that depended on the dose, substrate stiffness, and position; also recorded: caused a marked loss of SLSs”.

**Q.** Which “cell length before and after CytoD” value ([2]; 0.9 kPa substrates, 15 min CytoD) does the source give for `C=C1[C@@H](C)[C@H]2[C@H](Cc3ccccc3)NC(=O)[C@]23[C@H](OC(C)=O)/C=C/[C@@](C)(O)C(=O)[C@@H](C)C/C=C/[C@H]3[C@@H]1O` [CytoD, cytochalasin D] here?
**A.** The value was “most cells elongated along their axes; also recorded: increases in cell length associated with 15 min of CytoD treatment were statistically significant”.

**Q.** And the “cell length before and after CytoD” value ([2]; 6 kPa substrates, CytoD)?
**A.** Its value is “Less, but still significant cell relaxation”.

**Q.** What about the “substrate strains associated with treatment” value ([2]; 6 kPa substrates, CytoD compared with subsequent SDS treatment) of the same compound?
**A.** Its value is “much larger than those associated with subsequent SDS treatment”.

**Q.** And the “cell relaxation after actin disruption” value ([2]; reseeded primary podocytes, CytoD 20 μM, video recording)?
**A.** The value was “significant cell relaxation”.

**Q.** With human laminin α5β2γ1 trimer [Lam-521] as the compound, how does the “podocyte population of micropatterns” value [3] read?
**A.** Its value is “podocytes populated micropatterns coated with Lam-521”.
